Results: patent US20230271968A1, “PYRAZOLOPYRIMIDINE COMPOUND USED AS ATR KINASE INHIBITOR” (priority 2020, published 2023)
Read-outs that look alike come from different tables or passages of the source.

Legend:
[1] = tested on: TOV21G (ovarian cancer) cells; assay: Cell proliferation inhibition in vitro, CellTiter-Glo luminescence, TOV21G; format: cell-based, human; conditions: read-out: TOV21G/IC50/μM
Experimental: (§1) By detecting the effect of compounds on cell activity in vitro in tumor cell lines TOV21G (ovarian cancer) and MV4-11 (leukemia), the inhibitory effect of compounds on cell proliferation was studied in this assay.
(§2) TOV21G cells and MV4-11 cells were purchased from American Type Culture Collection (ATCC).
About 1000 cells were inoculated in each well of a 96-well culture plate, and cultured for 24 hours. Different concentrations (0-10 μM) of compounds to be assayed were added to treat the cells. Each group was assayed in triplicate. Blank wells (containing medium only) and control wells (inoculated cells without being treated with drug) were set. Cells were cultured for 120 hours. 40 μL of Cell Titer-Glo solutions (Promega, #G7573) were added to each well, and the cells were incubated with shaking for 20 min in the dark.
(§3) Inhibition rate (%)=100%×(control well−assay well)/(control well−blank well)

ATR kinase = ATR kinase (Homo sapiens (Human), UniProt Q13535); assay: Assay of ATR kinase activity (time-resolved fluorescence, phosphorylation of p53-derived protein); format: biochemical; conditions: ATR/ATRIP, p53 substrate, 30 minutes at room temperature
Sequence of ATR kinase (Q13535 whole entry, looked up): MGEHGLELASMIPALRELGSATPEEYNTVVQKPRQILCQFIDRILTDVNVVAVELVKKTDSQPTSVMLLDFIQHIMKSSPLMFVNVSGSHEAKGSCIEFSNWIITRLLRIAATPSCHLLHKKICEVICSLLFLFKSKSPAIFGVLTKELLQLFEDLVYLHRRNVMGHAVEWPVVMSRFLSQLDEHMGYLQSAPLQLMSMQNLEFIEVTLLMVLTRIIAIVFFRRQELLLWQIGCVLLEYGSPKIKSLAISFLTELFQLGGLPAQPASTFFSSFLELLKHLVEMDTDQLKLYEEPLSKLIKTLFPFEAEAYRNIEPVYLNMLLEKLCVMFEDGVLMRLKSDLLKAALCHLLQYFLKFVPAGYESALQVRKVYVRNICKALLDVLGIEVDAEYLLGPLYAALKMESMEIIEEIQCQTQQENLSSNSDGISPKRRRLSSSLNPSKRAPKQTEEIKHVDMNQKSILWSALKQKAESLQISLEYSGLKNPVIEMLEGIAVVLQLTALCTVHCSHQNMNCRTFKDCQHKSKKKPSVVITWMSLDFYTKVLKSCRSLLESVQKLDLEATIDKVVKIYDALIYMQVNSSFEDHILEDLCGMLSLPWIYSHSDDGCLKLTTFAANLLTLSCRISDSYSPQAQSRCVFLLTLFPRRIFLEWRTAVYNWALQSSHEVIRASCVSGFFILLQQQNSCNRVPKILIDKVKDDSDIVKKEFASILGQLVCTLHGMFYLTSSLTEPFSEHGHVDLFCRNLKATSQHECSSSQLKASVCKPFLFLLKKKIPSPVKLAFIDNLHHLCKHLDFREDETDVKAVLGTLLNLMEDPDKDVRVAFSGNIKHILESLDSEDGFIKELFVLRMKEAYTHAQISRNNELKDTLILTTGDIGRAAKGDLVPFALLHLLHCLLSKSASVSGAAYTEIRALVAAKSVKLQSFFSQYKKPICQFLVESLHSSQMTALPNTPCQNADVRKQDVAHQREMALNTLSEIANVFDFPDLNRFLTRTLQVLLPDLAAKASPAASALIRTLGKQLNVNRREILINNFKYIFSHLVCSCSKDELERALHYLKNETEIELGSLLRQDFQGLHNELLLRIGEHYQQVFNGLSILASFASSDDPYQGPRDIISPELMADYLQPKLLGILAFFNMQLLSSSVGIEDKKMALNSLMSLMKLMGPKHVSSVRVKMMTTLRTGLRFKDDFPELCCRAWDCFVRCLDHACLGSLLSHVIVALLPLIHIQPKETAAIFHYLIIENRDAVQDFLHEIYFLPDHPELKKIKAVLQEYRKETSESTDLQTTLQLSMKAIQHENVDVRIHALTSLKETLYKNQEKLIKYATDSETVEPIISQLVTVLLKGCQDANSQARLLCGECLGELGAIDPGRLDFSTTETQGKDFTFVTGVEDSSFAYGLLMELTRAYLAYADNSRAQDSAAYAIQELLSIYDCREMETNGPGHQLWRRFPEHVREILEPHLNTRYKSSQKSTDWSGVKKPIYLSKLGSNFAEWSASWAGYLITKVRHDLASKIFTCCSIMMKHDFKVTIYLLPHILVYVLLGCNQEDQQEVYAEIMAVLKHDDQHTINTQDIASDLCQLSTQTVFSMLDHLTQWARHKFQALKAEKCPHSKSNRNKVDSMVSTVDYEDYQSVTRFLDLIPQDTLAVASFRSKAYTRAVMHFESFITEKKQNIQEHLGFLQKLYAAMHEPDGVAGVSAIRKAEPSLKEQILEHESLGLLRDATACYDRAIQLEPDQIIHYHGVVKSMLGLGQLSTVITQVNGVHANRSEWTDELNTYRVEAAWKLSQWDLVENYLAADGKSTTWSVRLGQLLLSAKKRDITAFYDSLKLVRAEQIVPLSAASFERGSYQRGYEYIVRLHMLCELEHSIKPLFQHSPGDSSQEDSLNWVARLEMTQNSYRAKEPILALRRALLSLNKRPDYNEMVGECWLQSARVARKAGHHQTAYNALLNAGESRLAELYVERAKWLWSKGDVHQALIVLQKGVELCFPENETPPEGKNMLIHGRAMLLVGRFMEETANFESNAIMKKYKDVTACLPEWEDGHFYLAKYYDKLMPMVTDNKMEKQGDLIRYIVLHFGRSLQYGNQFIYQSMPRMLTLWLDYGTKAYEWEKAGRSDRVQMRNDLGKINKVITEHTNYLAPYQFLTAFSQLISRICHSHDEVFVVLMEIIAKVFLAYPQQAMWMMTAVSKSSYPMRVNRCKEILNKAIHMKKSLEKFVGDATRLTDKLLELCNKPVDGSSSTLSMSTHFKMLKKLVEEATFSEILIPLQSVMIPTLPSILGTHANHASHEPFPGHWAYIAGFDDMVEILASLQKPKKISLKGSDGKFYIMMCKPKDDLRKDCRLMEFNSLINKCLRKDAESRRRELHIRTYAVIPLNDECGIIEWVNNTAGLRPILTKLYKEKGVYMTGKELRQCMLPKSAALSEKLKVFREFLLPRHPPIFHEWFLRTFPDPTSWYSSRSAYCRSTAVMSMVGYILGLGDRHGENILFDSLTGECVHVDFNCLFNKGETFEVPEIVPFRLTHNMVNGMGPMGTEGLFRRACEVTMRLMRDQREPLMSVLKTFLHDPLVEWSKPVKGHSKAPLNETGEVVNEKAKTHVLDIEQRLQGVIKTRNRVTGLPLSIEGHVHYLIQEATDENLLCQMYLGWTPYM
Sequence of ATR kinase (Q8WXE1 whole entry partner, looked up): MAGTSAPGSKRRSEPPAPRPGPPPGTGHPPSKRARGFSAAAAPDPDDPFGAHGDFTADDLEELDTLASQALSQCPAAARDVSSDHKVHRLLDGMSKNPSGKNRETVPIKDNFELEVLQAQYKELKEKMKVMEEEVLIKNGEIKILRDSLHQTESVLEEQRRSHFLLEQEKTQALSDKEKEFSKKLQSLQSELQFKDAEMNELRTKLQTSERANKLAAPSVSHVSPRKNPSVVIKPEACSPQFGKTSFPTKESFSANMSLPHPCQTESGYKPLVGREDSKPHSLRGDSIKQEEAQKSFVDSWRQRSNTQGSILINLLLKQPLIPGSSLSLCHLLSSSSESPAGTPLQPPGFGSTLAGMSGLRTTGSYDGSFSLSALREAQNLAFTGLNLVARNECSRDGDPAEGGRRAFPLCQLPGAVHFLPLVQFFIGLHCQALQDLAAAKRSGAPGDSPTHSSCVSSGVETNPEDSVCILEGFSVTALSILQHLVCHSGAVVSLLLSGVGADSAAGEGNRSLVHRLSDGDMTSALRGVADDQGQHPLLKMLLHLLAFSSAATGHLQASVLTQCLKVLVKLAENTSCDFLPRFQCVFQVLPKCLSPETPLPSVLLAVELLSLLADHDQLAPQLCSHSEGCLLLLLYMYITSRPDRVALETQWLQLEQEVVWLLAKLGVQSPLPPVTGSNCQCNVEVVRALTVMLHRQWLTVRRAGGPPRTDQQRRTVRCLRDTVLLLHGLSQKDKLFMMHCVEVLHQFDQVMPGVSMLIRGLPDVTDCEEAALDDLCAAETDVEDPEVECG
Experimental: The amount of phosphorylated protein was determined by time-resolved fluorescence in this assay. The amount of phosphorylated protein was detected by anti-p53-phospho-(serine 15)-K-specific antibody (Cisbio, art. No.: 61GSTDLA) and d2 labeled anti-GST antibody (Cisbio, art. No. 61P08KAE). […] The reagents used above were purchased from Sigma or Invitrogen, except for those whose manufacturers were mentioned.
Operations were as Follows
4×p53 substrate working solution (40 nM) was prepared with 1×reaction buffer, and 2.5 μL of the 4×p53 substrate working solution was added to a 384-well analysis plate. […] 4×ATP working solution (2 mM) was prepared with deionized water, and 2.5 μL of the 4×ATP working solution was added to a 384-well analysis plate. The plates were incubated at room temperature in dark for 30 minutes. […] Finally, 5 μL of assay mixture (0.084 ng/μL Anti-phospho-p53 (ser15)-K and 5 ng/μL Anti-GST-d2) was added to the 384 well analysis plates, and incubated at room temperature overnight. The fluorescence signal was detected with ENVISION (Perkinelmer) instrument (excitation wavelength: 320 nm, emission wavelength: 665 nm and 615 nm). […] IC50 values of compounds were calculated by standard software for parameter fitting (GraphPad Prism 6.0).

MV4-11 (leukemia) cells = assay: Cell proliferation inhibition in vitro, CellTiter-Glo luminescence, MV4-11; format: cell-based, human; conditions: MV4-11 cells, 120 hours
Experimental: as §1, §2
MV-4-11 cells were cultured in IMDM medium (containing 20% of FBS). About 10,000 cells were inoculated in each well of a 96-well culture plate, and treated by adding different concentrations (0-10 μM) of compounds to be assayed. Each group was assayed in triplicate. Blank wells (containing medium only) and control wells (inoculated cells without being treated with drug) were set. Cells were cultured for 120 hours. 40 μL of Cell Titer-Glo solutions were added to each well, and the cells were incubated with shaking for 20 min in the dark. 100 μL of solution was transferred from each well to a 96-well blank plate, and the luminescence value was read by Biotek Synergy H1 multifunctional microplate reader.
as §3

PI3Kδ = PI3Kδ (Homo sapiens (Human), UniProt O00329); assay: Kinase selectivity: inhibitory activity against PI3Kδ; format: biochemical; conditions: 3-fold serial dilution from 10 μM to 0.51 nM, 10 concentrations
Experimental: (§4) The compounds of the present disclosure were assayed for inhibition of the same family (ATM, DNA-PK, PI3K, mTOR): […]

[2] = In vivo pharmacokinetics in male ICR mice, oral gavage; conditions: mouse, 10 mg/kg, plasma
Experimental: In vivo pharmacokinetic studies were performed on the compounds of the present disclosure.
Male ICR mice (3 mice/group) were administered orally by gavage at a dose of 10 mg/kg. The plasma samples were collected before administration (0 h) and after administration (0.25, 0.5, 1, 2, 4, 6, 8, 24 h). The collected samples were subjected to LC/MS/analysis, and the data were collected. The relevant pharmacokinetic parameters were calculated by Analyst v1.6.2 (AB Applied Biosystems Company, USA) software using the collected analytical data.

[3] = In vitro stability assay in mouse liver microsome; format: in vitro ADME; conditions: mouse liver microsomes, compound 2.0 nM, with or without NADPH, within 60 minutes of incubation; read-out: Mouse liver microsome t1/2
Experimental: (§5) The compounds of the present disclosure were subjected to stability assay in liver microsome. The compound to be assayed (with a final concentration of 2.0 nM) was co-incubated with human/mouse liver microsomes with or without the addition of NADPH. The concentration of the compound in the supernatant was determined within 60 minutes of incubation.

DNA-PK = DNA-PK (Homo sapiens (Human), UniProt P78527); assay: Kinase selectivity: inhibitory activity against DNA-PK; format: biochemical; conditions: 3-fold serial dilution from 10 μM to 0.51 nM, 10 concentrations; read-out: IC50/DNAPK
Experimental: as §4

[4] = In vitro stability assay in human liver microsome; format: in vitro ADME; conditions: human liver microsomes, compound 2.0 nM, with or without NADPH, within 60 minutes of incubation; read-out: Human liver microsome t1/2
Experimental: as §5

ATM = ATM (Homo sapiens (Human), UniProt Q13315); assay: Kinase selectivity: inhibitory activity against ATM; format: biochemical; conditions: 3-fold serial dilution from 10 μM to 0.51 nM, 10 concentrations
Experimental: as §4

mTOR = mTOR (Homo sapiens (Human), UniProt P42345); assay: Kinase selectivity: inhibitory activity against mTOR; format: biochemical; conditions: 3-fold serial dilution from 10 μM to 0.51 nM, 10 concentrations
Experimental: as §4

PI3Kα = PI3Kα (Homo sapiens (Human), UniProt P42336); assay: Kinase selectivity: inhibitory activity against PI3Kα; format: biochemical; conditions: 3-fold serial dilution from 10 μM to 0.51 nM, 10 concentrations
Experimental: as §4

[5] = Homo sapiens, TOV21G cells, 120 hours, CellTiter-Glo
[6] = TOV21G cells, 120 hours, CellTiter-Glo

SMILES | IC50 [1, 5] [µM] | IC50 (ATR kinase) [nM] | IC50 (MV4-11 (leukemia) cells; Homo sapiens) [µM] | IC50 [1, 6] [µM] | IC50 (MV4-11 (leukemia) cells) [µM] | other results
Cc1nn(C2CCNCC2)c(C(F)(F)F)c1-c1cc(N2CCOC[C@H]2C)nc2c(-c3ccn[nH]3)cnn12 [Compound A1] | 0.66 | 70 | 0.66 |  |  | 
Cc1c(-c2cc(N3CCOC[C@H]3C)nc3c(-c4ccn[nH]4)cnn23)c(C(F)(F)F)nn1C1CCNCC1 [Compound A2] | 0.83 | 33 | 0.78 |  |  | 
Cc1nn(C2CCNCC2)c(C)c1-c1cc(N2CCOC[C@H]2C)nc2c(-c3ccn[nH]3)cnn12 [Compound A3] |  | 184 |  |  |  | 
Cc1noc(C)c1-c1cc(N2CCOC[C@H]2C)nc2c(-c3ccn[nH]3)cnn12 [Compound A4] | 1.05 | 74 | 0.75 |  |  | 
Cc1nn(C2CCNCC2)c(C(F)(F)F)c1-c1cc(N2CCOC[C@H]2C)nc2c(-c3ccccn3)cnn12 [Compound A6] |  | 17 |  |  |  | 
Cc1nn(C2CCNCC2)c(C(F)(F)F)c1-c1cc(N2CCOC[C@H]2C)nc2c(-c3cccs3)cnn12 [Compound A7] |  | 12 |  |  |  | 
Cc1nnn(C)c1-c1cc(N2CCOC[C@H]2C)nc2c(-c3ccn[nH]3)cnn12 [Compound A8] |  | 84 |  | 0.78 | 0.68 | 
Cc1nn(-c2cncc(F)c2)c(C)c1-c1cc(N2CCOC[C@H]2C)nc2c(-c3ccn[nH]3)cnn12 [Compound A9] |  | 2 | 0.25 |  |  | IC50 (PI3Kδ): 1.13 µM; IC50 ([1]; Homo sapiens, TOV21G, 120 h): 0.28 µM; AUC [2]: 6.95 µg·h/mL; Cmax [2]: 1.81 µg/mL; Tmax [2]: 0.25 h; half-life [2]: 3.3 h; half-life at 2 nM [3]: 3.63 h; IC50 (DNA-PK): 0.303 µM; half-life at 2 nM [4]: 1.43 h; IC50 (ATM): 6.37 µM; IC50 (mTOR): 1.83 µM; IC50 (PI3Kα): 4.06 µM
Cc1nn(-c2cncc(C(F)F)c2)c(C)c1-c1cc(N2CCOC[C@H]2C)nc2c(-c3ccn[nH]3)cnn12 [Compound A10] |  | 3 | 0.27 |  |  | IC50 ([1]; Homo sapiens, TOV21G, 120 h): 0.3 µM; AUC [2]: 14.3 µg·h/mL; Cmax [2]: 4.89 µg/mL; Tmax [2]: 0.25 h; half-life [2]: 1.76 h; half-life at 2 nM [3]: 2.7 h; IC50 (DNA-PK): 1.26 µM; half-life at 2 nM [4]: 0.6 h; IC50 (ATM): 4.12 µM
Cc1nn(-c2cncc(C#N)c2)c(C)c1-c1cc(N2CCOC[C@H]2C)nc2c(-c3ccn[nH]3)cnn12 [Compound A11] | 0.38 |  | 0.5 |  |  | 
Cc1nn(-c2cncc(Cl)c2)c(C)c1-c1cc(N2CCOC[C@H]2C)nc2c(-c3ccn[nH]3)cnn12 [Compound A12] | 0.33 | 2 | 0.26 |  |  | AUC [2]: 8.33 µg·h/mL; Cmax [2]: 2.27 µg/mL; Tmax [2]: 0.33 h; half-life [2]: 1.98 h
Cc1nn(-c2ccnnc2)c(C)c1-c1cc(N2CCOC[C@H]2C)nc2c(-c3ccn[nH]3)cnn12 [Compound A13] | 0.21 | 2 | 0.28 |  |  | 
Cc1nn(-c2ccc(=O)[nH]c2)c(C)c1-c1cc(N2CCOC[C@H]2C)nc2c(-c3ccn[nH]3)cnn12 [Compound A14] |  | 3 |  |  |  | 
Cc1nn(C(=O)N2CCNCC2)c(C)c1-c1cc(N2CCOC[C@H]2C)nc2c(-c3ccn[nH]3)cnn12 [Compound A15] |  | 13 |  | 0.27 | 0.45 | 
Cc1nn(C2CCNC[C@H]2F)c(C)c1-c1cc(N2CCOC[C@H]2C)nc2c(-c3ccn[nH]3)cnn12 (some centres unmarked) [Compound A16-II] |  | 31 |  | 0.52 | 0.57 | 
Cc1nn(C2CCNC[C@@H]2F)c(C)c1-c1cc(N2CCOC[C@H]2C)nc2c(-c3ccn[nH]3)cnn12 (some centres unmarked) [Compound A16-I] |  | 33 |  | 1.4 | 0.89 | 
Cc1nn(-c2cncc(C(N)=O)c2)c(C)c1-c1cc(N2CCOC[C@H]2C)nc2c(-c3ccn[nH]3)cnn12 [Compound A17] |  | 3 |  | 1.29 | 0.85 | 
Cc1nn(CCO)c(C)c1-c1cc(N2CCOC[C@H]2C)nc2c(-c3ccn[nH]3)cnn12 [Compound A18] |  | 8 |  | 0.56 | 0.74 | 
Cc1nn(-c2cncc(O)c2)c(C)c1-c1cc(N2CCOC[C@H]2C)nc2c(-c3ccn[nH]3)cnn12 [Compound A19] |  | 4 |  | 0.66 | 0.6 | 
C[C@@H]1COCCN1c1cc(C2(O)CCOCC2)n2ncc(-c3ccn[nH]3)c2n1 [Compound A20] |  | 188 |  | 0.73 | 0.92 | 
C[C@@H]1COCCN1c1cc(-c2cccnc2C(F)(F)F)n2ncc(-c3ccn[nH]3)c2n1 [Compound A21] | 0.63 | 52 | 0.74 |  |  | 
Cc1nn(-c2cccnc2)c(C)c1-c1cc(N2CCOC[C@H]2C)nc2c(-c3ccn[nH]3)cnn12 [Compound A22] | 0.19 | 2 | 0.23 |  |  | 
Cc1cncc(-n2nc(C)c(-c3cc(N4CCOC[C@H]4C)nc4c(-c5ccn[nH]5)cnn34)c2C)c1 [Compound A23] | 0.26 | 4 | 0.3 |  |  | 
Cc1nn(-c2ccncc2)c(C)c1-c1cc(N2CCOC[C@H]2C)nc2c(-c3ccn[nH]3)cnn12 [Compound A24] | 0.15 | 2 | 0.23 |  |  | 
